From patent US9714266B2, “Estra-1,3,5(10),16-tetraene-3-carboxamides for inhibition of 17β-hydroxysteroid dehydrogenase (AKR1C3)” (priority 2013, dated 2017) come the findings set out here.

The structures appear in SMILES notation. Values after ≈ are worked out from the molar mass of the structure shown. Values joined by “and” are separate entries in the source; they are usually repeats but may differ in a detail not shown here. Equal values may be shown once.

AKR1C3, sequence (P42330 whole entry): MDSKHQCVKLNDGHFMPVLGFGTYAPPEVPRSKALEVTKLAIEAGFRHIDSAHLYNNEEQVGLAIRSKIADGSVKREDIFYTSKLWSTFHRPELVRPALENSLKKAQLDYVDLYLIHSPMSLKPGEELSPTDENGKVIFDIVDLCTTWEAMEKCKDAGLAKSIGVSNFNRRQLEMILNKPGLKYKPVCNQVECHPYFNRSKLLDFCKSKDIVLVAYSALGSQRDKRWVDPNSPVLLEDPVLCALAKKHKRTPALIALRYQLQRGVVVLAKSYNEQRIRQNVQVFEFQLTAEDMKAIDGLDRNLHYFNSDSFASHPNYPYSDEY

The first data set has as its target AKR1C3 (Homo sapiens (Human), UniProt P42330). As to the kind of experiment: AKR1C3 enzyme assay (coumberone reduction, fluorescence). In kind it is biochemical. The settings on record: recombinant human AKR1C3, coumberone 0.3 μM, NADPH 10 μM; read-out: AKR1C3 enzyme inhibition IC50. The protocol: The AKR1C3-inhibitory action of the substances of this invention was measured in the AKR1C3 assay described in the paragraphs which follow. Essentially, the enzyme activity is measured by quantifying the coumberol formed from coumberone ([…]., and […]. AM. CHEM. SOC. 130, 14123-14128 (2008) […]., Bauman, D. R., Penning, T. M., and […]., Proc. Natl. Acad. Sci. USA 103, 13304-13309 (2006)). In this assay, the increase in the highly fluorescent coumberol can be determined by NADPH (nicotinamide adenine dinucleotide phosphate)-dependent reduction of the nonfluorescent coumberone by AKR1C3. […] NM_003739). This was expressed as the GST (glutathione S-transferase) fusion protein in E. coli and purified by means of glutathione-Sepharose affinity chromatography. The GST was removed by thrombin digestion with subsequent size exclusion chromatography (Dufort, I., Rheault, P., Huang, X F., Soucy, P., and Luu-The, V., Endocrinology 140, 568-574 (1999)). […] The concentration of the AKR1C3 was matched to the respective activity of the enzyme preparation and set such that the assay worked within the linear range. Typical concentrations were in the region of 1 nM. The reaction was stopped by adding 5 μl of a stop solution consisting of the inhibitor EM-1404 [F. Labrie et al. U.S. Pat. […] Subsequently, the fluorescence of coumberol was measured at 520 nm (excitation at 380 nm) with a suitable measuring instrument (Pherastar from BMG Labtechnologies).
For the compound `C[C@]12CC[C@@H]3c4ccc(C(=O)N5CCC[C@H]5c5nnn[nH]5)cc4CC[C@H]3[C@@H]1CC=C2c1cncc(F)c1` [Example 28, 17-(5-fluoropyridin-3-yl)oestra-1,3,5(10),16-tetraen-3-yl (S)-2-(1H-tetrazol-5-yl)pyrrolidin-1-yl ketone], the IC50 is 0.009 µM.

As for `C[C@]12CC[C@@H]3c4ccc(C(=O)NCCc5nnn[nH]5)cc4CC[C@H]3[C@@H]1CC=C2c1cncc(F)c1` [Example 21, 17-(5-fluoropyridin-3-yl)-N-[2-(1H-tetrazol-5-yl)ethyl]oestra-1,3,5(10),16-tetraene-3-carboxamide], the IC50 was determined as 0.005 µM.

On to `CC1(CNC(=O)c2ccc3c(c2)CC[C@@H]2[C@@H]3CC[C@]3(C)C(c4cncc(F)c4)=CC[C@@H]23)COC1` [Example 43, 17-(5-fluoropyridin-3-yl)-N-[(3-methyloxetan-3-yl)methyl]oestra-1,3,5(10),16-tetraene-3-carboxamide], for which the 50% inhibitory concentration (IC50) is 0.007 µM.

In the case of `COc1cncc(C2=CC[C@H]3[C@@H]4CCc5cc(C(N)=O)ccc5[C@H]4CC[C@]23C)c1` [Example 2, 17-(5-methoxypyridin-3-yl)oestra-1,3,5(10),16-tetraene-3-carboxamide], the concentration for half-maximal inhibition (IC50) is 0.189 µM and 0.1 µM.

Consider `CCN(CCO)C(=O)c1ccc2c(c1)CC[C@@H]1[C@@H]2CC[C@]2(C)C(c3cncc(F)c3)=CC[C@@H]12` [Example 32, N-ethyl-17-(5-fluoropyridin-3-yl)-N-(2-hydroxyethyl)oestra-1,3,5(10),16-tetraene-3-carboxamide], for which the IC50 came out at 0.011 µM.

Consider `C[S+]([O-])CCNC(=O)c1ccc2c(c1)CC[C@@H]1[C@@H]2CC[C@]2(C)C(c3cncc(F)c3)=CC[C@@H]12` (stereo partly drawn) [Example 37, 17-(5-fluoropyridin-3-yl)-N-[2-(methylsulphinyl)ethyl]oestra-1,3,5(10),16-tetraene-3-carboxamide], for which the IC50 was determined as 0.005 µM.

Regarding `C[C@]12CC[C@@H]3c4ccc(C(=O)NCCS(N)(=O)=O)cc4CC[C@H]3[C@@H]1CC=C2c1cccnc1` [Example 23, 17-(3-pyridyl)-N-(2-sulphamoylethyl)oestra-1,3,5(10),16-tetraene-3-carboxamide], the IC50 was 0.009 µM.

`CC(C)S(=O)(=O)CCNC(=O)c1ccc2c(c1)CC[C@@H]1[C@@H]2CC[C@]2(C)C(c3cncc(F)c3)=CC[C@@H]12` [Example 42, 17-(5-fluoropyridin-3-yl)-N-[2-(isopropylsulphonyl)ethyl]oestra-1,3,5(10),16-tetraene-3-carboxamide]: the IC50 was determined as 0.011 µM.

For `C[C@]12CC[C@@H]3c4ccc(C(=O)N[C@H]5CCC[C@H]5O)cc4CC[C@H]3[C@@H]1CC=C2c1cncc(F)c1` [Example 9, 17-(5-fluoropyridin-3-yl)-N-[(1S,2R)-2-hydroxycyclopentyl]oestra-1,3,5(10),16-tetraene-3-carboxamide], the IC50 is 0.061 µM and 0.081 µM.

On to `CN(CCO)C(=O)c1ccc2c(c1)CC[C@@H]1[C@@H]2CC[C@]2(C)C(c3cncc(F)c3)=CC[C@@H]12` [Example 44, 17-(5-fluoropyridin-3-yl)-N-(2-hydroxyethyl)-N-methyloestra-1,3,5(10),16-tetraene-3-carboxamide], for which the IC50 was 0.012 µM.

For `C[C@]12CC[C@@H]3c4ccc(C(=O)N5CCC(O)CC5)cc4CC[C@H]3[C@@H]1CC=C2c1cncc(F)c1` [Example 14, 17-(5-fluoropyridin-3-yl)oestra-1,3,5(10),16-tetraen-3-yl 4-hydroxypiperidin-1-yl ketone], the IC50 is 0.054 µM and 0.037 µM.

Turning to `CN(CCCO)C(=O)c1ccc2c(c1)CC[C@@H]1[C@@H]2CC[C@]2(C)C(c3cncc(F)c3)=CC[C@@H]12` [Example 34, 17-(5-fluoropyridin-3-yl)-N-(3-hydroxypropyl)-N-methyloestra-1,3,5(10),16-tetraene-3-carboxamide], the IC50 was found to be 0.006 µM.

With `CC(O)C(C)NC(=O)c1ccc2c(c1)CCC1C2CCC2(C)C(c3cncc(F)c3)=CCC12` [Example 18, rel-17-(5-fluoropyridin-3-yl)-N-[(1R,2R)-2-hydroxy-1-methylpropyl]oestra-1,3,5(10),16-tetraene-3-carboxamide], the IC50 was 0.045 µM and 0.035 µM.

`C[C@]12CC[C@@H]3c4ccc(C(=O)NCCS(N)(=O)=O)cc4CC[C@H]3[C@@H]1CC=C2c1cncc(C(F)(F)F)c1` [Example 24, N-(2-sulphamoylethyl)-17-[5-(trifluoromethyl)pyridin-3-yl]oestra-1,3,5(10),16-tetraene-3-carboxamide]: the IC50 was found to be 0.017 µM.

Consider `C[C@]12CC[C@@H]3c4ccc(C(=O)NCCC(N)=O)cc4CC[C@H]3[C@@H]1CC=C2c1cncc(F)c1` [Example 26, N-(3-amino-3-oxopropyl)-17-(5-fluoropyridin-3-yl)oestra-1,3,5(10),16-tetraene-3-carboxamide], for which the IC50 is 0.005 µM.

In the case of `C[C@]12C[C@H](F)[C@@H]3c4ccc(C(=O)NCCS(N)(=O)=O)cc4CC[C@H]3[C@@H]1CC=C2c1cncc(F)c1` [Example 8, 11β-fluoro-17-(5-fluoropyridin-3-yl)-N-(2-sulphamoylethyl)oestra-1,3,5(10),16-tetraene-3-carboxamide], the IC50 amounted to 0.073 µM.

With `C[C@]12CC[C@@H]3c4ccc(C(=O)NCCS(N)(=O)=O)cc4CC[C@H]3[C@@H]1CC=C2c1cncnc1` [Example 47, 17-(pyrimidin-5-yl)-N-(2-sulphamoylethyl)oestra-1,3,5(10),16-tetraene-3-carboxamide], the half-maximal inhibitory concentration (IC50) came to 0.119 µM.

On to `C[C@]12CC[C@@H]3c4ccc(C(N)=O)cc4CC[C@H]3[C@@H]1CC=C2c1cncc(C(F)(F)F)c1` [Example 3, 17-[5-(trifluoromethyl)pyridin-3-yl]oestra-1,3,5(10),16-tetraene-3-carboxamide], for which the IC50 was 0.046 µM and 0.025 µM.

On to `C[C@]12CC[C@@H]3c4ccc(C(=O)NC5(CO)CCCC5)cc4CC[C@H]3[C@@H]1CC=C2c1cncc(F)c1` [Example 13, 17-(5-fluoropyridin-3-yl)-N-[1-(hydroxymethyl)cyclopentyl]oestra-1,3,5(10),16-tetraene-3-carboxamide], for which the half-maximal inhibitory concentration (IC50) was 0.108 µM and 0.079 µM.

As for `C[C@]12CC[C@@H]3c4ccc(C(N)=O)cc4CC[C@H]3[C@@H]1CC=C2c1cncnc1` [Example 5, 17-(pyrimidin-5-yl)oestra-1,3,5(10),16-tetraene-3-carboxamide], the concentration for half-maximal inhibition (IC50) is 0.313 µM and 0.199 µM and 0.143 µM.

Regarding `C[C@H](O)CNC(=O)c1ccc2c(c1)CC[C@@H]1[C@@H]2CC[C@]2(C)C(c3cncc(F)c3)=CC[C@@H]12` [Example 45, 17-(5-fluoropyridin-3-yl)-N—[(S)-2-hydroxypropyl]oestra-1,3,5(10),16-tetraene-3-carboxamide], the half-maximal inhibitory concentration (IC50) worked out at 0.006 µM.

`C[C@]12CC[C@@H]3c4ccc(C(=O)NCCOCCO)cc4CC[C@H]3[C@@H]1CC=C2c1cncc(F)c1` [Example 46, 17-(5-fluoropyridin-3-yl)-N-[2-(2-hydroxyethoxy)ethyl]oestra-1,3,5(10),16-tetraene-3-carboxamide]: the IC50 came out at 0.006 µM.

Test system in a further data set: not listed separately
As to the kind of experiment: Kinetic solubility by laser nephelometry. Format: physicochemical. The settings on record: pH 7.4, aqueous buffer, kinetic from dmso stock. The protocol:
The kinetic solubilities of the inventive substances were determined by laser nephelometry.
The data were recorded using the following instruments:
Liquid handling system: Hamilton Star
Nephelometer: Nepheloskan Ascent
The following chemicals and materials were used: […]
disodium hydrogenphosphate dihydrate potassium dihydrogenphosphate
Preparation of phosphate buffer pH 7.4:
• Solution 1: 9.71 g of disodium hydrogenphosphate dihydrate and • 1.65 g of potassium dihydrogenphosphate dissolved in 1 liter of water • Solution 2: 10 mg of gum arabic dissolved in 1 liter of water […]
150 ml of solution 1 and 100 ml of solution 2 were diluted with 750 ml of water.
150 μl of a 10 mM DMSO stock solution were pipetted into a plate (deep-well plate, Abgene, PP, 1.2 ml). The stock solution was diluted with DMSO, which led to a new multi-titre plate (MTP, Greiner bio-one, PS, V-Form) with eight concentrations: 10/5/2.5/1.25/0.625/0.313/0.156 and 0.078 mM. 261 μl of phosphate buffer were transferred into a further plate (96 cliniplate, UB Thermo Electron Corporation) and admixed with 9 μl of the DMSO stock solutions.
The concentration of the DMSO cosolvent was kept constant at 3%.
The plates obtained (cliniplates) were analysed in the nephelometer.
`C[C@]12CC[C@@H]3c4ccc(C(=O)N5CCC[C@H]5c5nnn[nH]5)cc4CC[C@H]3[C@@H]1CC=C2c1cncc(F)c1` [Example 28, 17-(5-fluoropyridin-3-yl)oestra-1,3,5(10),16-tetraen-3-yl (S)-2-(1H-tetrazol-5-yl)pyrrolidin-1-yl ketone] yielded a solubility of 0.166 mg/mL (≈ 333 µM).

Compound `C[C@]12CC[C@@H]3c4ccc(C(=O)NCCc5nnn[nH]5)cc4CC[C@H]3[C@@H]1CC=C2c1cncc(F)c1` [Example 21, 17-(5-fluoropyridin-3-yl)-N-[2-(1H-tetrazol-5-yl)ethyl]oestra-1,3,5(10),16-tetraene-3-carboxamide] gave a solubility of 0.158 mg/mL (≈ 334 µM).

Compound `CC1(CNC(=O)c2ccc3c(c2)CC[C@@H]2[C@@H]3CC[C@]3(C)C(c4cncc(F)c4)=CC[C@@H]23)COC1` [Example 43, 17-(5-fluoropyridin-3-yl)-N-[(3-methyloxetan-3-yl)methyl]oestra-1,3,5(10),16-tetraene-3-carboxamide] came in with a solubility of 0.154 mg/mL (≈ 334 µM).

For the compound `C[C@@H](CO)NC(=O)c1ccc2c(c1)CC[C@@H]1[C@@H]2CC[C@]2(C)C(c3cncc(F)c3)=CC[C@@H]12` [Example 40, 17-(5-fluoropyridin-3-yl)-N—[(S)-1-(hydroxymethyl)ethyl]oestra-1,3,5(10),16-tetraene-3-carboxamide], the solubility came out at 0.145 mg/mL (≈ 334 µM).

Staying with this data set, now noted: phosphate buffer with 3% DMSO, aqueous buffer, kinetic from dmso stock; phosphate buffer pH 7.4, 3% DMSO; read-out: Nephelometric solubility at pH = 7.4.
On to `CC1(C)CC[C@@]2(CC[C@H]3[C@@H]4CCc5cc(C(N)=O)ccc5[C@H]4CC[C@@]32C)OC1=O` [EM-1404, reference compound], for which the solubility came out at 0.018 mg/mL (≈ 45.5 µM).

The term IC50 denotes the concentration that gives 50% inhibition. In general, solubility refers to how much of the substance goes into solution per volume.
